Measurements published in US9546164B2 (GENENTECH, INC., priority 2013, dated 2017).

The molecules below were run against hNav1.7 (Homo sapiens (Human), UniProt Q15858) (assay: Tritiated sulfonamide competitive binding to membranes from cells expressing hNav1.7 and the β1 subunit). Conditions: read-out: Ligand Binding Assay; 100 pM [3H]compound, membranes with hNav1.7 and β1 subunit, 18 h, room temperature.
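Further: Filter-bound radioactivity counted by liquid scintillation, nonspecific binding defined with excess unlabelled ligand, IC50 fitted to percent inhibition of specific binding.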

Chain of hNav1.7 (Q15858 other isoform, or with tags, fused parts or gaps): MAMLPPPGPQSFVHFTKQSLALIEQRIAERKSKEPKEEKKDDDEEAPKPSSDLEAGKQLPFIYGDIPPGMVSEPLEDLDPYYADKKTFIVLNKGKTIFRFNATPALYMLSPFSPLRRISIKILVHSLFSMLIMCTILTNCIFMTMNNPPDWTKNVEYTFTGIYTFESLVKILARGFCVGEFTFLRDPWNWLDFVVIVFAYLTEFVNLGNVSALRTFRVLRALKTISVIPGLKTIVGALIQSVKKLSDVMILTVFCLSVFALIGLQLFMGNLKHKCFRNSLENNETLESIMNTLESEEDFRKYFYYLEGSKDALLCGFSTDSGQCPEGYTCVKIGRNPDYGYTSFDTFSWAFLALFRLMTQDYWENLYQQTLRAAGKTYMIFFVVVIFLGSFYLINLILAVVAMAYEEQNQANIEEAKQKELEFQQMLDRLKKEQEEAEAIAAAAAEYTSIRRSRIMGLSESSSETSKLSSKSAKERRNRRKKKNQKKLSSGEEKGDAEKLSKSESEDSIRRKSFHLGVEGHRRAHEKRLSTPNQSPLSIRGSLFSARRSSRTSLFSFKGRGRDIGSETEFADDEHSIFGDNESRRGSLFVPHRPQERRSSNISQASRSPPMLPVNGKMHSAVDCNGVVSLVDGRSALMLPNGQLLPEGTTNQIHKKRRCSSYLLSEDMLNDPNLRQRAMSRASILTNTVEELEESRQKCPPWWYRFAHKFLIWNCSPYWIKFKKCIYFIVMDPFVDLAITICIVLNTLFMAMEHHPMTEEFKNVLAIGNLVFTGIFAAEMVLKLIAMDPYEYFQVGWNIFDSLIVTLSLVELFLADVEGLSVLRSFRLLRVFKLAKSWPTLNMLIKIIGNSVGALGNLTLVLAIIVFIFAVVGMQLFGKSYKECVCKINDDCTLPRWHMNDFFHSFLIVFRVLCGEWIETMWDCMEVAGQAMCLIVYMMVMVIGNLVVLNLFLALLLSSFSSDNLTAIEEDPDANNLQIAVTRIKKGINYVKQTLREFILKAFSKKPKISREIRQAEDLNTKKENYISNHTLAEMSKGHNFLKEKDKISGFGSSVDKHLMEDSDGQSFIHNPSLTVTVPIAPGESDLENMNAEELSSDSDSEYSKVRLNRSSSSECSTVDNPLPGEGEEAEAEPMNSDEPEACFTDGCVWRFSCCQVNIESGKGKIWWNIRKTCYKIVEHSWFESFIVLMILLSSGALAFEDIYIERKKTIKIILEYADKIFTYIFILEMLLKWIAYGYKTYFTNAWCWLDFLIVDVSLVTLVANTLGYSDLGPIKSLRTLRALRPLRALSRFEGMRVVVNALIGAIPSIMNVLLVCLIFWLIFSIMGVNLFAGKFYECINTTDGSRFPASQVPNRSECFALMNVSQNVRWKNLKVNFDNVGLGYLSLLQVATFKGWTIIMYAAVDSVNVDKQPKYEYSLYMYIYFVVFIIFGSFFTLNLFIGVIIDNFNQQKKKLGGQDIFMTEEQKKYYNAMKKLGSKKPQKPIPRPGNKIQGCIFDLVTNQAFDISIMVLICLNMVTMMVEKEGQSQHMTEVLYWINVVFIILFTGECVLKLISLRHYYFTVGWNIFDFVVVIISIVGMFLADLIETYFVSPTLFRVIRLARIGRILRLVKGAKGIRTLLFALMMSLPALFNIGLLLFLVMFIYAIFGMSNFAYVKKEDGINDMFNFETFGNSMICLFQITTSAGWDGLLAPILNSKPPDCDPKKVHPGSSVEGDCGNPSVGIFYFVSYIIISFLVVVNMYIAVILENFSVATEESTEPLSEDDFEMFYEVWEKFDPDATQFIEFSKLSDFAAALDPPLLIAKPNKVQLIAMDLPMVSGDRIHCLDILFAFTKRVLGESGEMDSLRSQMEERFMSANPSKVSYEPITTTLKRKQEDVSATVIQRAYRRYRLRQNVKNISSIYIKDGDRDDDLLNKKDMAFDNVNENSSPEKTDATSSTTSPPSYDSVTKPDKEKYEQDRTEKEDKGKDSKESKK
Chain of hNav1.7 (Q07699 19-218 partner): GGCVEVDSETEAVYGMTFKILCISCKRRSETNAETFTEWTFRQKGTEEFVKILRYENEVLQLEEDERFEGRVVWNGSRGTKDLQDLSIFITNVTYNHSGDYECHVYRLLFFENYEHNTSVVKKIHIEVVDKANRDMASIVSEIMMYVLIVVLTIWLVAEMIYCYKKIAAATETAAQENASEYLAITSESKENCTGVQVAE

IC50	Structure (SMILES)
34 nM	CS(=O)(=O)NC(=O)c1cc(C2CC2)c(OCC2CCN(CC(F)(F)C(F)F)CC2)cc1F [Example 192, 5-Cyclopropyl-2-fluoro-N-(methylsulfonyl)-4-((1-(2,2,3,3-tetrafluoropropyl)piperidin-4-yl)methoxy)benzamide]
52 nM	O=C(NS(=O)(=O)C1CC1)c1cc(C2CC2)c(OCC2CCN(CCC(F)(F)F)CC2)cc1F [Example 193, 5-Cyclopropyl-N-(cyclopropylsulfonyl)-2-fluoro-4-((1-(3,3,3-trifluoropropyl)piperidin-4-yl)methoxy)benzamide]
180 nM	O=C(NS(=O)(=O)N1CCC1)c1cc(C2CC2)c(OCC2CCN(CCC(F)(F)F)CC2)cc1F [Example 194, N-(azetidin-1-ylsulfonyl)-5-cyclopropyl-2-fluoro-4-((1-(3,3,3-trifluoropropyl)piperidin-4-yl)methoxy)benzamide]
350 nM	CS(=O)(=O)NC(=O)c1cc(C2CC2)c(OCC2CCN(C(=O)c3cccc(Cl)c3)CC2)cc1F [Example 195, 4-((1-(3-Chlorobenzoyl)piperidin-4-yl)methoxy)-5-cyclopropyl-2-fluoro-N-(methylsulfonyl)benzamide]
43 nM	O=C(NS(=O)(=O)C1CC1)c1cc(C2CC2)c(OCC2CCN(C(=O)c3cccc(Cl)c3)CC2)cc1F [Example 196, 4-((1-(3-Chlorobenzoyl)piperidin-4-yl)methoxy)-5-cyclopropyl-N-(cyclopropylsulfonyl)-2-fluorobenzamide]
3200 nM	CS(=O)(=O)NC(=O)c1cc(C2CC2)c(OCC2CCN(C(=O)c3ccccc3)CC2)cc1F [Example 197, 4-((1-Benzoylpiperidin-4-yl)methoxy)-5-cyclopropyl-2-fluoro-N-(methylsulfonyl)benzamide]
550 nM	O=C(NS(=O)(=O)C1CC1)c1cc(C2CC2)c(OCC2CCN(C(=O)c3ccccc3)CC2)cc1F [Example 198, 4-((1-Benzoylpiperidin-4-yl)methoxy)-5-cyclopropyl-N-(cyclopropylsulfonyl)-2-fluorobenzamide]
1400 nM	CS(=O)(=O)NC(=O)c1cc(C2CC2)c(OCC2CCN([C@@H]3c4ccccc4C[C@@H]3O)CC2)cc1F [Example 199, 5-Cyclopropyl-2-fluoro-4-((1-((1R,2S)-2-hydroxy-2,3-dihydro-1H-inden-1-yl)piperidin-4-yl)methoxy)-N-(methylsulfonyl)benzamide]
9400 nM	CS(=O)(=O)NC(=O)c1cc(C2CC2)c(OCC2CCN([C@@H]3c4ccccc4C[C@H]3O)CC2)cc1F [Example 200, 5-Cyclopropyl-2-fluoro-4-((1-((1R,2R)-2-hydroxy-2,3-dihydro-1H-inden-1-yl)piperidin-4-yl)methoxy)-N-(methylsulfonyl)benzamide]
1.9 nM	CCS(=O)(=O)NC(=O)c1cc(C2CC2)c(OCC2CCN(C(C)(C)c3cc(Cl)cc(Cl)c3)CC2)cc1F [Example 210, 5-Cyclopropyl-4-((1-(2-(3,5-dichlorophenyl)propan-2-yl)piperidin-4-yl)methoxy)-N-(ethylsulfonyl)-2-fluorobenzamide]
2.5 nM	CCS(=O)(=O)NC(=O)c1cc(C2CC2)c(OCC2CCN(Cc3ccc(Cl)cc3Cl)CC2)cc1F [Example 213, 5-cyclopropyl-4-((1-(2,4-dichlorobenzyl)piperidin-4-yl)methoxy)-N-(ethylsulfonyl)-2-fluorobenzamide]
5 nM	CCS(=O)(=O)NC(=O)c1cc(C2CC2)c(OCC2CCN(Cc3cc(Cl)cc(C(F)(F)F)c3)CC2)cc1F [Example 216, 4-((1-(3-Chloro-5-(trifluoromethyl)benzyl)piperidin-4-yl)methoxy)-5-cyclopropyl-N-(ethylsulfonyl)-2-fluorobenzamide]
17 nM	CS(=O)(=O)NC(=O)c1cc(C2CC2)c(OCC2CCN(Cc3ccc(C(F)(F)F)c(Cl)c3)CC2)cc1F [Example 220, 4-((1-(3-Chloro-4-(trifluoromethyl)benzyl)piperidin-4-yl)methoxy)-5-cyclopropyl-2-fluoro-N-(methylsulfonyl)benzamide]
1800 nM	CS(=O)(=O)NC(=O)c1cc(C2CC2)c(O[C@@H]2CCCN(C(=O)c3cc(Cl)cc(Cl)c3)C2)cc1F [Example 221, (R)-5-cyclopropyl-4-((1-(3,5-dichlorobenzoyl)piperidin-3-yl)oxy)-2-fluoro-N-(methylsulfonyl)benzamide]
160 nM	COC[C@@H](c1ccccc1)N1CCC(COc2cc(F)c(C(=O)NS(C)(=O)=O)cc2C2CC2)CC1 [Example 222, (R)-5-cyclopropyl-2-fluoro-4-((1-(2-methoxy-1-phenylethyl)piperidin-4-yl)methoxy)-N-(methylsulfonyl)benzamide]
250 nM	COC[C@H](c1ccccc1)N1CCC(COc2cc(F)c(C(=O)NS(C)(=O)=O)cc2C2CC2)CC1 [Example 223, (S)-5-cyclopropyl-2-fluoro-4-((1-(2-methoxy-1-phenylethyl)piperidin-4-yl)methoxy)-N-(methylsulfonyl)benzamide]
12 nM	CCS(=O)(=O)NC(=O)c1cc(C2CC2)c(OCC2CCN([C@@H](c3cc(Cl)cc(Cl)c3)C(F)F)CC2)cc1F [Example 226, (S)-5-cyclopropyl-4-((1-(1-(3,5-dichlorophenyl)-2,2-difluoroethyl)piperidin-4-yl)methoxy)-N-(ethylsulfonyl)-2-fluorobenzamide]
8.1 nM	CCS(=O)(=O)NC(=O)c1cc(C2CC2)c(OCC2CCN([C@H](c3cc(Cl)cc(Cl)c3)C(F)F)CC2)cc1F [Example 227, (R)-5-cyclopropyl-4-((1-(1-(3,5-dichlorophenyl)-2,2-difluoroethyl)piperidin-4-yl)methoxy)-N-(ethylsulfonyl)-2-fluorobenzamide]
7.3 nM	CS(=O)(=O)NC(=O)c1cc(C2CC2)c(OCC2CCN(Cc3ccc(Cl)c(C(F)(F)F)c3)CC2)cc1F [Example 229, 4-((1-(4-Chloro-3-(trifluoromethyl)benzyl)piperidin-4-yl)methoxy)-5-cyclopropyl-2-fluoro-N-(methylsulfonyl)benzamide]
64 nM	CS(=O)(=O)NC(=O)c1cc(C2CC2)c(OCC2CCN(C(=O)c3ccc(Cl)c(Cl)c3)CC2)cc1F [Example 232, 5-Cyclopropyl-4-((1-(3,4-dichlorobenzoyl)piperidin-4-yl)methoxy)-2-fluoro-N-(methylsulfonyl)benzamide]
31 nM	O=C(NS(=O)(=O)C1CC1)c1cc(C2CC2)c(OCC2CCN(C(=O)c3ccc(Cl)c(Cl)c3)CC2)cc1F [Example 233, 5-Cyclopropyl-N-(cyclopropylsulfonyl)-4-((1-(3,4-dichlorobenzoyl)piperidin-4-yl)methoxy)-2-fluorobenzamide]
2.2 nM	C[C@@H](c1ccc(Cl)cc1Cl)N1CCC(COc2cc(F)c(C(=O)NS(C)(=O)=O)cc2C2CC2)CC1 [Example 238, (S)-5-cyclopropyl-4-((1-(1-(2,4-dichlorophenyl)ethyl)piperidin-4-yl)methoxy)-2-fluoro-N-(methylsulfonyl)benzamide]
3.4 nM	C[C@H](c1ccc(Cl)cc1Cl)N1CCC(COc2cc(F)c(C(=O)NS(C)(=O)=O)cc2C2CC2)CC1 [Example 239, (R)-5-cyclopropyl-4-((1-(1-(2,4-dichlorophenyl)ethyl)piperidin-4-yl)methoxy)-2-fluoro-N-(methylsulfonyl)benzamide]
